US7723320B2, “Use of estrogen compounds to increase libido in women” (Pantarhei Bioscience B.V., priority 2001, dated 2010)
Where “and” joins values, the source holds several entries; their conditions need not be identical. Equal values may be shown once. Read-outs that look alike come from different tables or passages of the source.

Legend:
[1] = tested on: ovariectomized adult rats; assay: Vaginal cornification bioassay in ovariectomized rats; format: in vivo, rat
From the text: Uterine weight increase in the rat is more commonly used as a measure of estrogenicity. […] In the early 1920s it was discovered that follicular fluid from the pig ovary contained a factor(s) that caused cornification/keratinization of the vaginal epithelium in the rat (Allen and Doisy, 1923, JAMA, 81,819-821; Allen and Doisy, 1924, Am. J. Physiol., 69, 577-588). The so-called vaginal cornification response in rats subsequently provided a bioassay for testing estrogenicity. Vaginal epithelial cornification/keratinization in ovariectomized rats can be produced only by compounds considered to be true estrogens (Jones et al, 1973, Fert. Steril. 24, 284-291). […] Adult intact female CD rats were ovariectomized to induce estrogen deficiency. […] Castrate vaginal smears are indicative that complete ovanectomy was achieved. Treatment commenced following completion of the 7 days of smearing (day 0=first day of dosing). Animals were dosed, once daily for 7 consecutive days. Daily vaginal lavages continued to be obtained for 7 days after dosing was initiated in order to detect vaginal cornification, as an indication of an estrogenic response. A drop of vaginal washings was placed on a glass slide and examined by light microscopy to detect the presence or absence of cornified epithelial cells. Vaginal lavages were obtained prior to dosing on days 0-6 and prior to necropsy on day 7. The vaginal cornification bioassay was performed in order to determine the estrogenic profile of E4 when given subcutaneously (sc) to ovariectomized adult rats. E2 was used as a positive control. […] The vaginal cornification bioassay was performed in order to determine the estrogenic profile of E4 when given orally (po) to ovariectomized adult rats. EE was used as a positive control. […] A vaginal estrogenic response occurred in all rats (8/8) given 50 μg/kg/day EE po by day 7 (Table 2).

[2] = tested on: postmenopausal women; assay: Clinical study of libido in postmenopausal women; format: in vivo, human; details: 4 months
Method: In a baseline cycle, coitus frequency and sexual satisfaction (female orgasm) are recorded.
Each participant receives blinded medication in 2 differently labeled bottles, filled with tablets. One bottle comprises tablets that contain 2 mg estetrol, whilst the other bottle contains identical placebo tablets. The participants are allowed to choose from which bottle to take a tablet, but are instructed not to use more than 1 tablet per 24 hours and not more than 2 tablets a week. The total duration of the study is 4 months.

[3] = tested on: human breast cancer cells (MCF-7); details: MCF-7, long term tissue culture; cited from earlier work
[4] = tested on: immature rat uterus; details: subcutaneously administered, Holinka et al., cited from earlier work
[5] = molecular target: T1, rat uterine cytosol estrogen receptor (Rattus norvegicus, UniProt P06211); details: cited from earlier work
T1 construct: rat uterine cytosol estrogen receptor; host or cells: rat uterus (cytosol / nuclear fraction)
T1 sequence (P06211 1-600): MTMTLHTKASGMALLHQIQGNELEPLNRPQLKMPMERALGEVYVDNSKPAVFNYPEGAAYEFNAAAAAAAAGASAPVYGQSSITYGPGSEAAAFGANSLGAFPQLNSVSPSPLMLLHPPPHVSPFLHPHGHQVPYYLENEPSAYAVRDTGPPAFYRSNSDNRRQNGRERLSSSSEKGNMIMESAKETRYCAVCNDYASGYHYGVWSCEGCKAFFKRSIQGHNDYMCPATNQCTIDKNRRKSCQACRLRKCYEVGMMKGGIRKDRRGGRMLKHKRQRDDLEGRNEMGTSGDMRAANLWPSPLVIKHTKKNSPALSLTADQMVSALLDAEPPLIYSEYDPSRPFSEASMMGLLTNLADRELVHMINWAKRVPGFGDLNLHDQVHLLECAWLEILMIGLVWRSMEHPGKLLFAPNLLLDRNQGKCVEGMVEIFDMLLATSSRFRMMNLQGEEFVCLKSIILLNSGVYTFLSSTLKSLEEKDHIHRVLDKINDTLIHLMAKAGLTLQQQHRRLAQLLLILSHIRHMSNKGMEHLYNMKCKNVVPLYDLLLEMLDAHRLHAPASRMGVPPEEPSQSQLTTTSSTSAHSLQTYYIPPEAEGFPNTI

[6] = molecular target: T2, rat uterine nuclear estrogen receptor (Rattus norvegicus, UniProt P06211); details: cited from earlier work
T2 construct: rat uterine cytosol estrogen receptor; host or cells: rat uterus (cytosol / nuclear fraction)
T2 sequence (P06211 1-600): T1 sequence (P06211 1-600)

C[C@]12CC[C@@H]3c4ccc(O)cc4CC[C@H]3[C@@H]1[C@@H](O)[C@@H](O)[C@@H]2O [E4, 1,3,5(10)-estratrien-3,15α,16α,17β-tetrol]
Number of Rats Exhibiting Estrogenic Response/Number of Rats Treated ([1]; po, 0.1 mg/kg/day, Day 0): 0/8 | Number of Rats Exhibiting Estrogenic Response/Number of Rats Treated ([1]; po, 0.1 mg/kg/day, Day 1): 0/8 | Number of Rats Exhibiting Estrogenic Response/Number of Rats Treated ([1]; po, 0.1 mg/kg/day, Day 2): 1/8 | Number of Rats Exhibiting Estrogenic Response/Number of Rats Treated ([1]; po, 0.1 mg/kg/day, Day 3): 7/8 | Number of Rats Exhibiting Estrogenic Response/Number of Rats Treated ([1]; po, 0.1 mg/kg/day, Day 4): 8/8 | Number of Rats Exhibiting Estrogenic Response/Number of Rats Treated ([1]; po, 0.1 mg/kg/day, Day 5): 8/8 | Number of Rats Exhibiting Estrogenic Response/Number of Rats Treated ([1]; po, 0.1 mg/kg/day, Day 6): 8/8 | Number of Rats Exhibiting Estrogenic Response/Number of Rats Treated ([1]; po, 0.1 mg/kg/day, Day 7): 8/8 | Number of Rats Exhibiting Estrogenic Response/Number of Rats Treated ([1]; po, 0.3 mg/kg/day, Day 0): 0/8 | Number of Rats Exhibiting Estrogenic Response/Number of Rats Treated ([1]; po, 0.3 mg/kg/day, Day 1): 0/8 | Number of Rats Exhibiting Estrogenic Response/Number of Rats Treated ([1]; po, 0.3 mg/kg/day, Day 2): 1/8 | Number of Rats Exhibiting Estrogenic Response/Number of Rats Treated ([1]; po, 0.3 mg/kg/day, Day 3): 7/8 | Number of Rats Exhibiting Estrogenic Response/Number of Rats Treated ([1]; po, 0.3 mg/kg/day, Day 4): 8/8 | Number of Rats Exhibiting Estrogenic Response/Number of Rats Treated ([1]; po, 0.3 mg/kg/day, Day 5): 8/8 | Number of Rats Exhibiting Estrogenic Response/Number of Rats Treated ([1]; po, 0.3 mg/kg/day, Day 6): 8/8 | Number of Rats Exhibiting Estrogenic Response/Number of Rats Treated ([1]; po, 0.3 mg/kg/day, Day 7): 8/8 | Number of Rats Exhibiting Estrogenic Response/Number of Rats Treated ([1]; po, 1.0 mg/kg/day, Day 0): 0/8 | Number of Rats Exhibiting Estrogenic Response/Number of Rats Treated ([1]; po, 1.0 mg/kg/day, Day 1): 0/8 | Number of Rats Exhibiting Estrogenic Response/Number of Rats Treated ([1]; po, 1.0 mg/kg/day, Day 2): 4/8 | Number of Rats Exhibiting Estrogenic Response/Number of Rats Treated ([1]; po, 1.0 mg/kg/day, Day 3): 8/8 | Number of Rats Exhibiting Estrogenic Response/Number of Rats Treated ([1]; po, 1.0 mg/kg/day, Day 4): 8/8 | Number of Rats Exhibiting Estrogenic Response/Number of Rats Treated ([1]; po, 1.0 mg/kg/day, Day 5): 8/8 | Number of Rats Exhibiting Estrogenic Response/Number of Rats Treated ([1]; po, 1.0 mg/kg/day, Day 6): 8/8 | Number of Rats Exhibiting Estrogenic Response/Number of Rats Treated ([1]; po, 1.0 mg/kg/day, Day 7): 8/8 | Number of Rats Exhibiting Estrogenic Response/Number of Rats Treated ([1]; po, 3.0 mg/kg/day, Day 0): 0/8 | Number of Rats Exhibiting Estrogenic Response/Number of Rats Treated ([1]; po, 3.0 mg/kg/day, Day 1): 0/8 | Number of Rats Exhibiting Estrogenic Response/Number of Rats Treated ([1]; po, 3.0 mg/kg/day, Day 2): 6/8 | Number of Rats Exhibiting Estrogenic Response/Number of Rats Treated ([1]; po, 3.0 mg/kg/day, Day 3): 8/8 | Number of Rats Exhibiting Estrogenic Response/Number of Rats Treated ([1]; po, 3.0 mg/kg/day, Day 4): 8/8 | Number of Rats Exhibiting Estrogenic Response/Number of Rats Treated ([1]; po, 3.0 mg/kg/day, Day 5): 8/8 | Number of Rats Exhibiting Estrogenic Response/Number of Rats Treated ([1]; po, 3.0 mg/kg/day, Day 6): 8/8 | Number of Rats Exhibiting Estrogenic Response/Number of Rats Treated ([1]; po, 3.0 mg/kg/day, Day 7): 8/8 | onset of vaginal cornification (animals responding at days 1-3), po versus sc ([1]; relatively low doses, e.g. 0.1 mg/kg/day): faster in po-treated | onset of vaginal epithelial cornification ([1]; sc 0.1, 0.3, 1.0 and 3.0 mg/kg/day): dose-dependent | Number of Rats Exhibiting Estrogenic Response/Number of Rats Treated ([1]; sc, 0.1 mg/kg/day, Day 0): 0/8 | Number of Rats Exhibiting Estrogenic Response/Number of Rats Treated ([1]; sc, 0.1 mg/kg/day, Day 1): 0/8 | Number of Rats Exhibiting Estrogenic Response/Number of Rats Treated ([1]; sc, 0.1 mg/kg/day, Day 2): 0/8 | Number of Rats Exhibiting Estrogenic Response/Number of Rats Treated ([1]; sc, 0.1 mg/kg/day, Day 3): 1/8 | Number of Rats Exhibiting Estrogenic Response/Number of Rats Treated ([1]; sc, 0.1 mg/kg/day, Day 4): 1/8 | Number of Rats Exhibiting Estrogenic Response/Number of Rats Treated ([1]; sc, 0.1 mg/kg/day, Day 5): 4/8 | Number of Rats Exhibiting Estrogenic Response/Number of Rats Treated ([1]; sc, 0.1 mg/kg/day, Day 6): 3/8 | Number of Rats Exhibiting Estrogenic Response/Number of Rats Treated ([1]; sc, 0.1 mg/kg/day, Day 7): 4/8 | Number of Rats Exhibiting Estrogenic Response/Number of Rats Treated ([1]; sc, 0.3 mg/kg/day, Day 0): 0/8 | Number of Rats Exhibiting Estrogenic Response/Number of Rats Treated ([1]; sc, 0.3 mg/kg/day, Day 1): 0/8 | Number of Rats Exhibiting Estrogenic Response/Number of Rats Treated ([1]; sc, 0.3 mg/kg/day, Day 2): 1/8 | Number of Rats Exhibiting Estrogenic Response/Number of Rats Treated ([1]; sc, 0.3 mg/kg/day, Day 3): 5/8 | Number of Rats Exhibiting Estrogenic Response/Number of Rats Treated ([1]; sc, 0.3 mg/kg/day, Day 4): 7/8 | Number of Rats Exhibiting Estrogenic Response/Number of Rats Treated ([1]; sc, 0.3 mg/kg/day, Day 5): 6/8 | Number of Rats Exhibiting Estrogenic Response/Number of Rats Treated ([1]; sc, 0.3 mg/kg/day, Day 6): 7/8 | Number of Rats Exhibiting Estrogenic Response/Number of Rats Treated ([1]; sc, 0.3 mg/kg/day, Day 7): 7/8 | Number of Rats Exhibiting Estrogenic Response/Number of Rats Treated ([1]; sc, 1.0 mg/kg/day, Day 0): 0/8 | Number of Rats Exhibiting Estrogenic Response/Number of Rats Treated ([1]; sc, 1.0 mg/kg/day, Day 1): 0/8 | Number of Rats Exhibiting Estrogenic Response/Number of Rats Treated ([1]; sc, 1.0 mg/kg/day, Day 2): 1/8 | Number of Rats Exhibiting Estrogenic Response/Number of Rats Treated ([1]; sc, 1.0 mg/kg/day, Day 3): 6/8 | Number of Rats Exhibiting Estrogenic Response/Number of Rats Treated ([1]; sc, 1.0 mg/kg/day, Day 4): 8/8 | Number of Rats Exhibiting Estrogenic Response/Number of Rats Treated ([1]; sc, 1.0 mg/kg/day, Day 5): 7/8 | Number of Rats Exhibiting Estrogenic Response/Number of Rats Treated ([1]; sc, 1.0 mg/kg/day, Day 6): 8/8 | Number of Rats Exhibiting Estrogenic Response/Number of Rats Treated ([1]; sc, 1.0 mg/kg/day, Day 7, 1 mg/kg/day): all rats and 8/8 | Number of Rats Exhibiting Estrogenic Response/Number of Rats Treated ([1]; sc, 3.0 mg/kg/day, Day 0): 0/8 | Number of Rats Exhibiting Estrogenic Response/Number of Rats Treated ([1]; sc, 3.0 mg/kg/day, Day 1): 0/8 | Number of Rats Exhibiting Estrogenic Response/Number of Rats Treated ([1]; sc, 3.0 mg/kg/day, Day 2): 3/8 | Number of Rats Exhibiting Estrogenic Response/Number of Rats Treated ([1]; sc, 3.0 mg/kg/day, Day 3): 8/8 | Number of Rats Exhibiting Estrogenic Response/Number of Rats Treated ([1]; sc, 3.0 mg/kg/day, Day 4): 8/8 | Number of Rats Exhibiting Estrogenic Response/Number of Rats Treated ([1]; sc, 3.0 mg/kg/day, Day 5): 8/8 | Number of Rats Exhibiting Estrogenic Response/Number of Rats Treated ([1]; sc, 3.0 mg/kg/day, Day 6): 8/8 | Number of Rats Exhibiting Estrogenic Response/Number of Rats Treated ([1]; sc, 3.0 mg/kg/day, Day 7, 3 mg/kg/day): all rats and 8/8 | use of estetrol containing tablets versus placebo tablets ([2]; blinded free choice between two bottles): significantly more | libido and sexual enjoyment in comparison to baseline ([2]; oral 2 mg tablets on demand, postmenopausal women): improved libido and sexual enjoyment | undesirable side-effects ([2]; oral 2 mg tablets, max 2 tablets a week): no undesirable side-effects are reported | agonistic potency relative to 17β-estradiol in in vitro cell proliferation [3]: 2% | uterotrophic activity [4]; 1979: very weak uterotrophic activity | uterotrophic activity [4]; 1980: very weak uterotrophic activity | relative binding affinity, of 17β-estradiol (100%) [5]: 0.5% | relative binding affinity, of 17β-estradiol (100%) [6]: 0.3%
